Assay results as given in patent US20090227607A1, “DEAZAPURINES USEFUL AS INHIBITORS OF JANUS KINASES” (priority 2006, published 2009).

Key:
[1] = target: JAK-2 enzyme (Homo sapiens, UniProt O60674); assay: JAK2 Inhibition Assay; assay type: biochemical; details: 15 μM poly(Glu)4Tyr, 12 μM ATP, 25° C.
Protocol: (§1) Compounds were screened for their ability to inhibit JAK3 using the assay shown below. Reactions were carried out in a kinase buffer containing 100 mM HEPES (pH 7.4), 1 mM DTT, 10 mM MgCl2, 25 mM NaCl, and 0.01% BSA. Substrate concentrations in the assay were 5 μM ATP (200 uCi/μmole ATP) and 1 μM poly(Glu)4Tyr. Reactions were carried out at 25° C. and 1 nM JAK3.
(§2) To each well of a 96 well polycarbonate plate was added 1.5 μl of a candidate JAK3 inhibitor along with 50 μl of kinase buffer containing 2 μM poly(Glu)4Tyr and […]. This was then mixed and […] of kinase buffer containing 2 nM JAK3 enzyme was added to start the reaction. After 20 minutes at room temperature (25° C.), the reaction was stopped with 50 μl of 20% trichloroacetic acid (TCA) that also contained 0.4 mM ATP. The entire contents of each well were then transferred to a 96 well glass fiber filter plate using a TomTek Cell Harvester. After washing, 60 μl of scintillation fluid was added and ^33P incorporation detected on a Perkin Elmer TopCount.
The assays were as described above in Example 36 except that JAK-2 enzyme was used, the final poly(Glu)4Tyr concentration was 15 μM, and final ATP concentration was 12 μM.
(§3) Tables 5 and 6 depict enzyme inhibition data (Ki) for certain exemplary compounds. Compound numbers in Tables 5 and 6 correspond to those compounds depicted in Tables 1 and 2, respectively.

[2] = target: T1, JAK3 (Homo sapiens, UniProt P52333); assay: JAK3 Inhibition Assay; assay type: biochemical; details: 1 μM poly(Glu)4Tyr, 5 μM ATP, 1 nM JAK3, 25° C.; read-out: JAK3 enzyme inhibition data (Ki)
T1 sequence (P52333 1-1124): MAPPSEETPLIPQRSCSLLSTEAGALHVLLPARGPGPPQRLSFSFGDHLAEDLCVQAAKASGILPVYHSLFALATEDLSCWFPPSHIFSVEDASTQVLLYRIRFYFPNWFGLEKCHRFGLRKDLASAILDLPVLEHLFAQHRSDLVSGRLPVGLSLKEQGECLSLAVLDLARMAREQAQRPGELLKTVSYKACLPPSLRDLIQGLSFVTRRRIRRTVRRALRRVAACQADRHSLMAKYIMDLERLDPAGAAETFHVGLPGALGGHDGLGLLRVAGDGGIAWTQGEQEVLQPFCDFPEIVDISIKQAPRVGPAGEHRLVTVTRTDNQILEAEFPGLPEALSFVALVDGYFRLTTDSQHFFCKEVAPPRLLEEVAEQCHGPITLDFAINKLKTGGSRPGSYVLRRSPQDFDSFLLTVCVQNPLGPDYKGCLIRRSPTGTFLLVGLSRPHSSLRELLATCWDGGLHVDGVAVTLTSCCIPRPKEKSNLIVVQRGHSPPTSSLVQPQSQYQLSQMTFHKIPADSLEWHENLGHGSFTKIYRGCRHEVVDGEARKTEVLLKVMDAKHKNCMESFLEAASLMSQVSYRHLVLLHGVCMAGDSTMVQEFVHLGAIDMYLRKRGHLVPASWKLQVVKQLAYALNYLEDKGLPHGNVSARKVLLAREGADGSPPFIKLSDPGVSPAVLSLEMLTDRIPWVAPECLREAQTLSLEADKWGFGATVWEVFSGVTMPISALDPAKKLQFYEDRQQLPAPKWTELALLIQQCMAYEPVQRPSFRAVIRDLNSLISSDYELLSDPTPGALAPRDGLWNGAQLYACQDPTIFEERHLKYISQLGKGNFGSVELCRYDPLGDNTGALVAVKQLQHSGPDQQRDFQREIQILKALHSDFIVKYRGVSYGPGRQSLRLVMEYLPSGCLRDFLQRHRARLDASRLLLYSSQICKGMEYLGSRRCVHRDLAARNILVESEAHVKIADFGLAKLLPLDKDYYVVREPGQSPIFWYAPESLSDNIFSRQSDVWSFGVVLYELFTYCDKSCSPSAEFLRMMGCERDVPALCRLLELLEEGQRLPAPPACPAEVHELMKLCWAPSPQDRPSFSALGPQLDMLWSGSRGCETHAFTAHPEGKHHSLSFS
Protocol: as §1, §2, §3

JAK-2 enzyme, sequence (O60674 whole entry, species assumed): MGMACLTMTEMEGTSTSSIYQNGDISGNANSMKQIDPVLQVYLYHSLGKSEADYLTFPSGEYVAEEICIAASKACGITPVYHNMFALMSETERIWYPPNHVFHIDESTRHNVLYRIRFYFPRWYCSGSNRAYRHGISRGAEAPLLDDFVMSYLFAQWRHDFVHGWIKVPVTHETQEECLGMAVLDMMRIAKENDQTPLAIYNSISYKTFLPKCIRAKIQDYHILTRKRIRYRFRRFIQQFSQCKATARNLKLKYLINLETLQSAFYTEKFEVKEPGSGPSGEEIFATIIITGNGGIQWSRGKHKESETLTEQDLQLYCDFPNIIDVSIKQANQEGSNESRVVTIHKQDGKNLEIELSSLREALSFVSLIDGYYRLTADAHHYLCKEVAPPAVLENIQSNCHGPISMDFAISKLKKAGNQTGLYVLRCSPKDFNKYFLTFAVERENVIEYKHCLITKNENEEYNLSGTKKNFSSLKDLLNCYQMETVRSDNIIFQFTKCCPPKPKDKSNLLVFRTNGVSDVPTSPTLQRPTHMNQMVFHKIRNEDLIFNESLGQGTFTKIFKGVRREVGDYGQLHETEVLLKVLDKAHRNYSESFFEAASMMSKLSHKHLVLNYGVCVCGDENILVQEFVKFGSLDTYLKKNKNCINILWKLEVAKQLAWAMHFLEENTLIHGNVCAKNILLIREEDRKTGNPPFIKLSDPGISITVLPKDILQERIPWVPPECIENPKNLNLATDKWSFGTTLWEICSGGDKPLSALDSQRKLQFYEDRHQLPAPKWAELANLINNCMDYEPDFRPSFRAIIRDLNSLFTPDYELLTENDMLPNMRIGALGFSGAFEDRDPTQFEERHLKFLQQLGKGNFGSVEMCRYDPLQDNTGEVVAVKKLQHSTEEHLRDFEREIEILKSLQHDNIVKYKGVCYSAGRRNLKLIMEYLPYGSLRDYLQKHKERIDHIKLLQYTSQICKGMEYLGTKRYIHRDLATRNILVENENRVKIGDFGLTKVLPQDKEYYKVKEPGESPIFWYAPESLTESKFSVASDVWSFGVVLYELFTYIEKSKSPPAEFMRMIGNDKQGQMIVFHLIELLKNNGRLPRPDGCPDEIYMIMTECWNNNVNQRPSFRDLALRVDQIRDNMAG

Compound | Ki [1] [nM] | Ki [2] [nM]
O=C(c1ccc(-c2ncnc3[nH]ccc23)o1)N(CCC(F)(F)F)CC1CCCC1 [Compound 212] | < 100 | < 100
CCN(Cc1ccccc1)C(=O)c1cc(-c2ncnc3[nH]cc(C)c23)c[nH]1 [Compound 202] | < 100 | 100 to 500
CC1CCC(C)N1C(=O)c1cc(-c2ncnc3[nH]ccc23)c[nH]1 (stereo not shown) [Compound 54] | < 100 | < 100
O=C1[C@H]2CCCC[C@@H]2C(=O)N1c1nc(-c2ncnc3[nH]ccc23)cs1 [Compound 180] | 100 to 500 | 100 to 500
CC1CC1C(=O)Nc1nc(-c2ncnc3[nH]ccc23)cs1 (stereo not shown) [Compound 58] | < 100 | < 100
O=C(c1ccc(-c2ncnc3[nH]ccc23)o1)N1CCCC1 [Compound 219] | 100 to 500 | 500 to 5000
O=C(c1coc(-c2ncnc3[nH]ccc23)c1)N(CC1CC1)CC(F)(F)F [Compound 195] | < 100 | 100 to 500
C=CCN(C(=O)c1ccc(-c2ncnc3[nH]ccc23)o1)[C@@H](C)c1ccccc1 [Compound 222] | < 100 | < 100
O=C(Nc1nc(-c2ncnc3[nH]ccc23)cs1)C1CCOCC1 [Compound 61] | < 100 | < 100
CC(=O)NCCCC(=O)Nc1nc(-c2ncnc3[nH]ccc23)cs1 [Compound 168] | < 100 | 100 to 500
O=C(CCC(F)(F)F)Nc1nc(-c2ncnc3[nH]ccc23)cs1 [Compound 99] | < 100 | < 100
CC(C(=O)NC1CCCC1)n1cc(-c2ncnc3[nH]ccc23)cn1 (stereo not shown) [Compound 75] | 100 to 500 | < 100
O=C(c1coc(-c2ncnc3[nH]ccc23)c1)N(CCC(F)(F)F)CC1CC1 [Compound 196] | < 100 | 100 to 500
CC(C)CN(CCC(F)(F)F)C(=O)c1ccc(-c2ncnc3[nH]ccc23)o1 [Compound 211] | < 100 | < 100
CC(C)CN(CCC(F)(F)F)C(=O)c1cc(-c2ncnc3[nH]ccc23)co1 [Compound 252] | 100 to 500 | 100 to 500
O=C(c1cc(-c2ncnc3[nH]ccc23)c[nH]1)N1CCCC1CO (stereo not shown) [Compound 41] | 100 to 500 | 500 to 5000
C=CC(=O)c1c[nH]c2ncnc(-c3ccoc3)c12 [Compound 253] | 500 to 5000 | 100 to 500
C#CCN(C(=O)c1cc(-c2ncnc3[nH]ccc23)c[nH]1)C1CCCCC1 [Compound 137] | < 100 | 100 to 500
CCC(C)CC(=O)Nc1nc(-c2ncnc3[nH]ccc23)cs1 (stereo not shown) [Compound 98] | < 100 | < 100
CC(=O)NCCC(=O)Nc1nc(-c2ncnc3[nH]ccc23)cs1 [Compound 174] | < 100 | 100 to 500
N#CCNC(=O)c1cc(-c2ncnc3[nH]ccc23)c[nH]1 [Compound 15] | < 100 | < 100
O=C1CCC(C(=O)Nc2nc(-c3ncnc4[nH]ccc34)cs2)C1 (stereo not shown) [Compound 167] | < 100 | < 100
C[C@@H]1CC[C@@H](C)N1C(=O)c1cc(-c2ncnc3[nH]cc(Cl)c23)c[nH]1 [Compound 213] | < 100 | < 100
C[C@@H](O)CNC(=O)c1cc(-c2ncnc3[nH]ccc23)c[nH]1 [Compound 133] | < 100 | 100 to 500
CC(C)NC(=O)c1cc(-c2ncnc3[nH]ccc23)c[nH]1 [Compound 8] | < 100 | 100 to 500
c1nc(-c2cnn(C3CCCC3)c2)c2cc[nH]c2n1 [Compound 36] | < 100 | < 100
